Broadly, the IC50 is the midpoint of a concentration-inhibition curve. The term logP denotes the decadic logarithm of the partition coefficient of the neutral form, usually between octanol and water. Lower therefore signals lower lipophilicity.

We go through 17 compounds from ChEMBL document CHEMBL1135353, “Synthesis and initial SAR studies of 3,6-disubstituted pyrazolo[1,5-a]pyrimidines: a new class of KDR kinase inhibitors” (Bioorg Med Chem Lett, 2002).

Data set [1] deals with Vascular endothelial growth factor receptor 2 (Homo sapiens, UniProt P35968). Nature of the data set: Inhibitory activity at VEGF-2 receptor.
Vascular endothelial growth factor receptor 2, sequence (P35968 whole entry): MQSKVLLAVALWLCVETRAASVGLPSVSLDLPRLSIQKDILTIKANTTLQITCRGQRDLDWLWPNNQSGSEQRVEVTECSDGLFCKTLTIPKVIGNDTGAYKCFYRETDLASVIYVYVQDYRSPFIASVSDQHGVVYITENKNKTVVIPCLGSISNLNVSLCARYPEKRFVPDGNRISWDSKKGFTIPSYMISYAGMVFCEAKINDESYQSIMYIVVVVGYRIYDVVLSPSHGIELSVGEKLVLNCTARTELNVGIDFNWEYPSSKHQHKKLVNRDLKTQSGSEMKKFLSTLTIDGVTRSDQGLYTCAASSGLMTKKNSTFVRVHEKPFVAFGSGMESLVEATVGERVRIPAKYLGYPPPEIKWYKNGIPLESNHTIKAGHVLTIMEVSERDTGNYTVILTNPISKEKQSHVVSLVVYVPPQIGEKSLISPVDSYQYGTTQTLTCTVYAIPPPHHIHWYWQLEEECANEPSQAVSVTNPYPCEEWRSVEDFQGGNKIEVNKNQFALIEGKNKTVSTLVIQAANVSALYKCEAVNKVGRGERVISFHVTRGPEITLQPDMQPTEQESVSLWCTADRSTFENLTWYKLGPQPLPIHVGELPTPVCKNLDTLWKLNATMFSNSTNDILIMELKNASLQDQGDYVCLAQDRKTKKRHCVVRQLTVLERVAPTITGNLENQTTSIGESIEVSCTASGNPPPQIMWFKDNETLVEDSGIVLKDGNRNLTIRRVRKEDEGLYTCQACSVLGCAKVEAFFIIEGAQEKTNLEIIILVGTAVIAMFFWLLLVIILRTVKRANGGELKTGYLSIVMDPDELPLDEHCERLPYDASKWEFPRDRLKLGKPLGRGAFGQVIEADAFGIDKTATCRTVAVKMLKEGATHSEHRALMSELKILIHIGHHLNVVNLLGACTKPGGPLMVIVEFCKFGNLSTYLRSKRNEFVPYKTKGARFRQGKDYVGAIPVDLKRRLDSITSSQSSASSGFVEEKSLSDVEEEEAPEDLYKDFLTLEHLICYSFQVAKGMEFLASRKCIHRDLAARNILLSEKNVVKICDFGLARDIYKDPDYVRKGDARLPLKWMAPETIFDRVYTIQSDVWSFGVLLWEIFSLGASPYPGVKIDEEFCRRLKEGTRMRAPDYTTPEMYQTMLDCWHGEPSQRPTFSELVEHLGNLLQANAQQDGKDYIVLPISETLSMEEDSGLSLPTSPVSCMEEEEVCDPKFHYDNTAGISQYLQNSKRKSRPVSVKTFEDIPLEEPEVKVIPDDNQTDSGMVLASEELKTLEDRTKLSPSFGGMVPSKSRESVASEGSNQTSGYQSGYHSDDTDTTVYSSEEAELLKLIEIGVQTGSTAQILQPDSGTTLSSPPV
A short description of data set [2]: Partition coefficient (logP). Type of data set: physicochemical. Particulars: octanol/water.
In data set [3] the target is VEGF-receptor 2 and PDGF-receptor beta (KDR and PDGFR beta) (Homo sapiens) (UniProt P09619+P35968). Nature of the data set: Selectivity for Vascular endothelial growth factor receptor 2 over Platelet-derived growth factor receptor beta. Type of data set: protein assay.
VEGF-receptor 2 and PDGF-receptor beta (KDR and PDGFR beta) (Homo sapiens), sequence (P09619 whole entry, looked up): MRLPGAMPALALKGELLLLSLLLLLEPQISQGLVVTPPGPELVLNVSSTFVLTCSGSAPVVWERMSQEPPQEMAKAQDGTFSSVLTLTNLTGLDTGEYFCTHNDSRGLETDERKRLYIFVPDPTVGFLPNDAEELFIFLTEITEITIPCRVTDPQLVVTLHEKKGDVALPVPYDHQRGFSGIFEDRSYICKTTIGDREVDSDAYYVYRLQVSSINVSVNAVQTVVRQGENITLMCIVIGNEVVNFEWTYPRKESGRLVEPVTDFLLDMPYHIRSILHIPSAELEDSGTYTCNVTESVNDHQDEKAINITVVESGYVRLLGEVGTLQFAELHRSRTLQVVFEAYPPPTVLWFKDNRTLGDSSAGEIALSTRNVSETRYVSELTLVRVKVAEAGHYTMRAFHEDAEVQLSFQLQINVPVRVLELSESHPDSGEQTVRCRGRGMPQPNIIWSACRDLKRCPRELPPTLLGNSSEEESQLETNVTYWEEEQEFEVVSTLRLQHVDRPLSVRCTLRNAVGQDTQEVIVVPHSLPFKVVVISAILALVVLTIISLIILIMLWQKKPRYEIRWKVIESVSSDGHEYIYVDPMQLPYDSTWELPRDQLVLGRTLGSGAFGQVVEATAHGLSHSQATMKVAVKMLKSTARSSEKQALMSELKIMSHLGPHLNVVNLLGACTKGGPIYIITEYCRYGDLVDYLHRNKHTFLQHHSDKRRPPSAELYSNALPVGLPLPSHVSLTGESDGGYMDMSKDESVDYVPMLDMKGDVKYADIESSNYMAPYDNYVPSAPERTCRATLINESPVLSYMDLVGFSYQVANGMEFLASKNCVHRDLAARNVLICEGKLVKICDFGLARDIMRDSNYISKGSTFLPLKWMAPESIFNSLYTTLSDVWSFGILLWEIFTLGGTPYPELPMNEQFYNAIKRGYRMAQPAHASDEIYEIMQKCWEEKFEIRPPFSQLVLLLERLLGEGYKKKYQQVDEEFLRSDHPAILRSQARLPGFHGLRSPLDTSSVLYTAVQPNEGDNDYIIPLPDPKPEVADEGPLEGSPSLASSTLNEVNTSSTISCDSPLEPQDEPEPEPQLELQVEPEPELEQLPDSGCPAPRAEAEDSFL
VEGF-receptor 2 and PDGF-receptor beta (KDR and PDGFR beta) (Homo sapiens), sequence (P35968 whole entry, looked up): as the sequence (P35968 whole entry) above
Data set [4] has as its target VEGF-receptor 2 and tyrosine-protein kinase SRC (Homo sapiens) (UniProt P12931+P35968). Nature of the data set: Selectivity for Vascular endothelial growth factor receptor 2 over c-Src kinase. Type of data set: protein assay.
Data set [5] addresses Vascular endothelial growth factor receptor 2 and 3 (KDR and Flt-4) (Homo sapiens) (UniProt P35916+P35968). Nature of the data set: Selectivity for VEGF-receptor 2 (KDR) over Vascular endothelial growth factor receptor 3 (FLT4). Type of data set: protein assay.
Data set [6] addresses Vascular endothelial growth factor receptor (Homo sapiens, UniProt P17948+P35916+P35968). The conditions noted are these: endothelial cell.
Description: Inhibition of VEGF-stimulated mitogenesis in human umbilical vein endothelial cells

VEGF-receptor 2 and tyrosine-protein kinase SRC (Homo sapiens), sequence (P12931 whole entry, looked up): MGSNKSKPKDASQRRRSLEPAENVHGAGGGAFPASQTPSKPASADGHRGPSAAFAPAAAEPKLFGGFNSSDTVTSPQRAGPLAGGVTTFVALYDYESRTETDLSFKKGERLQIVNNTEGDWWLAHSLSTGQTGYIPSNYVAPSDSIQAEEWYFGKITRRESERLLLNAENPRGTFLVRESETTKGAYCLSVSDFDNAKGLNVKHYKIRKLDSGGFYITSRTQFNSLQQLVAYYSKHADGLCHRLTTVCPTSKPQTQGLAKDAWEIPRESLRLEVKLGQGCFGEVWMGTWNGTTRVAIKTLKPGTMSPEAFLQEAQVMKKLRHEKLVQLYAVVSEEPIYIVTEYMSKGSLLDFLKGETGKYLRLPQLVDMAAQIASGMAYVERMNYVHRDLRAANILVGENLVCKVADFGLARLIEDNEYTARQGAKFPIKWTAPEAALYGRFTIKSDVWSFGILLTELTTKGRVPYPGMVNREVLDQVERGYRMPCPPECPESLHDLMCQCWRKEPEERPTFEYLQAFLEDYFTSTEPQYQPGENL
VEGF-receptor 2 and tyrosine-protein kinase SRC (Homo sapiens), sequence (P35968 whole entry, looked up): as the sequence (P35968 whole entry) above
Vascular endothelial growth factor receptor 2 and 3 (KDR and Flt-4) (Homo sapiens), sequence (P35916 whole entry, looked up): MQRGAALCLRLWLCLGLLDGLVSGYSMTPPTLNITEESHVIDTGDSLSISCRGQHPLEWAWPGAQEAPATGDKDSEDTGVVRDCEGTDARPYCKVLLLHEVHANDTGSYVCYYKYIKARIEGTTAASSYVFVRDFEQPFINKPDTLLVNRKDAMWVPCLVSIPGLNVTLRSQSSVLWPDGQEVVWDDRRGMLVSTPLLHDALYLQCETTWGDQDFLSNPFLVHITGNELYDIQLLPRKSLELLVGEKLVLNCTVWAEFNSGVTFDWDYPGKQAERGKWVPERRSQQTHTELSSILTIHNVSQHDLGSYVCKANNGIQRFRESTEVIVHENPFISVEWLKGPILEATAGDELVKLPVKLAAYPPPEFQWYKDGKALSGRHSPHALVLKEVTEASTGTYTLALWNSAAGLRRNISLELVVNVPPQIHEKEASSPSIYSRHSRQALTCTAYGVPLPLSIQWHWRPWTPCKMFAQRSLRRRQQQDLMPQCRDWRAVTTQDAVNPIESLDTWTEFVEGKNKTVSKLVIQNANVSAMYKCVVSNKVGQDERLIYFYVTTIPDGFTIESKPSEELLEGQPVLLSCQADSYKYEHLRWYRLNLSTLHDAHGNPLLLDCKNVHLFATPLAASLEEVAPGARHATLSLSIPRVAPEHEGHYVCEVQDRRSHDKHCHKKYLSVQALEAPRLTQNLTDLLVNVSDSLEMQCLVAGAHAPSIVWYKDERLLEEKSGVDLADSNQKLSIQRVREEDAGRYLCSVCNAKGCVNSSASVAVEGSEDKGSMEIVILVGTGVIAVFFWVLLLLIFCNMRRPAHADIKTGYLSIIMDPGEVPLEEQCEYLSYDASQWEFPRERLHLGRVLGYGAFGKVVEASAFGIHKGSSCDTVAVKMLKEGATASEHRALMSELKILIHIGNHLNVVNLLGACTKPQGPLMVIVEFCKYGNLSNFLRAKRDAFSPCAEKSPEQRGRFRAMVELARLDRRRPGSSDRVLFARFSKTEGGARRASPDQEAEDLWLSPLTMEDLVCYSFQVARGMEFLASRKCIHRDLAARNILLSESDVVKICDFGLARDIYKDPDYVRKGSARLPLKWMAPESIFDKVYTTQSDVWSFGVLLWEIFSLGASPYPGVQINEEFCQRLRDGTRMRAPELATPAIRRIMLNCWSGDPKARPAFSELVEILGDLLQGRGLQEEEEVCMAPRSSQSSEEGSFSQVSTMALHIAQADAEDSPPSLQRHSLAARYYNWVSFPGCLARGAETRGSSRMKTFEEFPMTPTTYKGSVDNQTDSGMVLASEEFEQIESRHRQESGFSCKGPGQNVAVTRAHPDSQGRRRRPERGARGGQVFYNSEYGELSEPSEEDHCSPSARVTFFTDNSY
Vascular endothelial growth factor receptor 2 and 3 (KDR and Flt-4) (Homo sapiens), sequence (P35968 whole entry, looked up): as the sequence (P35968 whole entry) above

With `Fc1ccc(-c2cnn3cc(-c4ccncc4)cnc23)cc1Cl`, the IC50 in data set [1] was 265 nM.
Same read-out and setting: the same measure for `c1ccc(-c2cnn3cc(-c4ccccn4)cnc23)cc1`: 88 nM.
As for `c1cc(-c2cnc3c(-c4ccncc4)cnn3c2)ccn1`, the logP in data set [2] was determined as 2.5.
With `C1=C(c2cnn3cc(-c4ccncc4)cnc23)CCC1`, inhibition in data set [1] was half-maximal at 28 nM (IC50).
As for `COc1ccc(-c2cnc3c(-c4ccncc4)cnn3c2)cc1`, the figures for the Ratio in data set [3], in data set [4] and in data set [5] were 0.5, 27 and 2.2, respectively. Moreover, the logP in data set [2] worked out at 4.
In turn, `COc1cccc(-c2cnn3cc(-c4ccncc4)cnc23)c1` gave an IC50 in data set [1] of 510 nM.
Same read-out and setting: the same measure for `c1ccc(-c2cnn3cc(-c4ccncc4)cnc23)cc1`: 71 nM; for `Clc1cccc(-c2cnn3cc(-c4ccncc4)cnc23)c1`: 350 nM; for `COc1ccc(-c2cnc3c(-c4ccccn4)cnn3c2)cc1`: 1000 nM.
For `Cc1ccc(-c2cnc3c(-c4ccncc4)cnn3c2)cc1`, the IC50 in data set [1] amounted to 62 nM.
Still for that read-out and setting: the same measure for `c1cc(-c2cnn3cc(C4CCCCC4)cnc23)cs1`: 280 nM.
Still for that read-out and setting: the same measure for `C1=C(c2cnn3cc(-c4ccncc4)cnc23)CCCC1`: 41 nM.
Consider `c1cc(-c2cnc3c(-c4ccsc4)cnn3c2)ccn1`, for which the IC50 in data set [6] amounted to 127 nM.
Regarding `Fc1ccc(-c2cnn3cc(-c4ccncc4)cnc23)cc1`, the concentration for half-maximal inhibition (IC50) in data set [1] was determined as 63 nM.
The same measure, in the same setting: the same measure for `Clc1ccc(-c2cnc3c(-c4ccncc4)cnn3c2)cc1`: 113 nM.
As for `COc1ccc(-c2cnc3c(-c4ccsc4)cnn3c2)cc1`, the logP in data set [2] is over 4.
In turn, `COc1ccc(-c2cnc3c(-c4cccnc4)cnn3c2)cc1` showed an IC50 in data set [1] of 41 nM.
